The source of these data is patent publication US6090839A, “Antidiabetic agents” (Merck & Co., Inc., priority 1997, dated 2000).

Broadly, the Kd is the free concentration of one partner at which half of the binding sites on the other are occupied at equilibrium, for simple one-to-one binding.

Each structure is given as a SMILES string.

One test has as its target T1, human PPARδ (Homo sapiens, UniProt Q03181).
T1 construct: The full length human cDNA for PPARγ2 and PPARδ were subcloned; made in house; host or cells: E. coli
T1 sequence (Q03181 1-441): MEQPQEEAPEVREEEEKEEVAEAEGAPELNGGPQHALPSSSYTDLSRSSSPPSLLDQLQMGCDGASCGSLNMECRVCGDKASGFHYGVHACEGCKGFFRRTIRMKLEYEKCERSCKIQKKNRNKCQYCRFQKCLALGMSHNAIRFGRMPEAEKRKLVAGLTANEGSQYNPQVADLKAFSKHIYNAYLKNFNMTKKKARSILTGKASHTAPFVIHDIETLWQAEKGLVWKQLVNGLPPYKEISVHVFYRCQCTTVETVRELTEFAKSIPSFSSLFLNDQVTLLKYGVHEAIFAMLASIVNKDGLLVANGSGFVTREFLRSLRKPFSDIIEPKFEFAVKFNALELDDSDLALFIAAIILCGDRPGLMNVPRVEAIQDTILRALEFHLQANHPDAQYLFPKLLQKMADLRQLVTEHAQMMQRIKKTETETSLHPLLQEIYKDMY
Put plainly: PPAR Receptor Binding Assay: [3H2]Example 11 Displacement Assay for PPARδ. To be noted: [3H2]Example 11, gst-PPARδ, ~16 h at 4° C., pH 7.2. The text has this:
(§1) Compounds of the instant invention which are useful for the above discussed treatments can be identified and/or characterized by employing the PPARδ, and γ binding assays. The assays are useful in predicting or quantitating in vivo effects having to do with the control or modulation of glucose, free fatty acid, triglyceride, insulin or cholesterol. To evaluate IC50 or EC50, values the compounds were titrated in the appropriate assay using different concentrations of the compound to be tested. To obtain the appropriate values (%Inhibition-IC50, or %Activation-EC50), the data resulting from the assays were then analyzed by determining the best fit of a 4 parameter function to the data using the Levenberg-Marquardt non-linear fitting algorithm in Kaleidagraph (Synergy Software, Reading, Pa). The human nuclear receptor cDNA for PPARδ (hPPARδ) has been cloned from a human osteosarcoma cell cDNA library and is fully described in A. Schmidt et al., Molecular Endocrinology, 6:1634-1641 (1992), herein incorporated by reference in its entirety. See A. Elbrecht et al., Biochem. and Biophy. Res. Comm. 224:431-437 (1996) and T. Sher et al., Biochem. 32:5598-5604 (1993) for a description of the human nuclear receptor gene PPARγ, and α.
The hPPARδ binding assay comprises the steps of: […]

In a further test the target is T2, human PPARγ2 (Homo sapiens, UniProt P37231).
T2 construct: The full length human cDNA for PPARγ2 and PPARδ were subcloned; made in house; host or cells: E. coli
T2 sequence (P37231 1-505): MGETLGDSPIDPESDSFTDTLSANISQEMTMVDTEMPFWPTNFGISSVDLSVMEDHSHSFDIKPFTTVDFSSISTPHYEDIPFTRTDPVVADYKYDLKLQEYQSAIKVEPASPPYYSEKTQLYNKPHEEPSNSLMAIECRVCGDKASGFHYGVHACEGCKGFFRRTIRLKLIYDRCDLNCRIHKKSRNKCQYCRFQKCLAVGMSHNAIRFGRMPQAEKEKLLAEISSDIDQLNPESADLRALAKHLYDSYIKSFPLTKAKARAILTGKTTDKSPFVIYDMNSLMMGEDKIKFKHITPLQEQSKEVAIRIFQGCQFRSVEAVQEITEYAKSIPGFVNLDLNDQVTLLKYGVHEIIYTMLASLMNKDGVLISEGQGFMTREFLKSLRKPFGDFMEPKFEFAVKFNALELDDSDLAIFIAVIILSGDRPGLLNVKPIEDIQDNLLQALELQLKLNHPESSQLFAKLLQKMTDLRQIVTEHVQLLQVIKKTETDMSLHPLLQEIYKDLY
Put plainly: PPAR Receptor Binding Assay: [3H]AD-5075 Displacement Assay for PPARγ2. To be noted: [3H2]AD-5075, gst-PPARγ2, ~16 h at 4° C., pH 7.2.
Source text: as §1
Human PPARγ2 and PPARδ, independently, were prepared as gst-fusion proteins in E. coli. […]

Consider `CCCc1c(OCCc2cc3c4c(ccc3o2)C(C(=O)O)CCC4)ccc2c(-c3ccccc3)noc12` (centres unmarked) [Example 11, 2-(2-(3-phenyl-7-propylbenz[4,5]isoxazol-6-yloxy)ethyl)-4,5,6,7-tetrahydronaphtho[2,1-b]furan-7-carboxylic acid], for which, on human PPARδ, the dissociation constant Kd is approximately 1 nM.

As for `Cc1oc(-c2ccccc2)nc1C(O)COc1ccc(CC2SC(=O)NC2=O)cc1` (centres unmarked) [AD-5075], the Kd on human PPARγ2 was approximately 1 nM.
